Earlier results on one compound are cited in patent publication US20130315977A1, “TRANSDERMAL PATCH” (priority 2011, published 2013).

Each structure is given as a SMILES string.

Data set [1] has as its target dopamine D2 (Homo sapiens, UniProt P14416). The following applies: as compared to haloperidol.
Data set [2] relates to serotonin 5-HT2 receptor. The following applies: as compared to haloperidol.

Chain of dopamine D2 (P14416 whole entry): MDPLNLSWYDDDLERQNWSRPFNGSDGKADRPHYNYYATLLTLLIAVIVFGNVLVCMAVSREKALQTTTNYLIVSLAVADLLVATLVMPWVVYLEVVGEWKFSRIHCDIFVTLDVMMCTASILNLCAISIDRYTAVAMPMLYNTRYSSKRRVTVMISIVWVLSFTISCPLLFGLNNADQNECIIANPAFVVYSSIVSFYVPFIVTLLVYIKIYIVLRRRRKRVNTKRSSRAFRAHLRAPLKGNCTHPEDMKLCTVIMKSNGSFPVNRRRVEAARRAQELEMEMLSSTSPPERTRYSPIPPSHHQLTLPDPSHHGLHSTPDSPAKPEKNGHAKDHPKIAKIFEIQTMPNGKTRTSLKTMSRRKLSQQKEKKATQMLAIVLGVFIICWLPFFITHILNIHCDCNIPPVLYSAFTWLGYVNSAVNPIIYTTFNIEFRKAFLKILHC

Turning to `CCN1CCN(c2cc(-c3ccc(F)cc3)c3c(n2)CCCCCC3)CC1` [Blonanserin, 2-(4-ethyl-1-piperazinyl)-4-(4-fluorophenyl)-5,6,7,8,9,10-hexahydrocycloocta[b]pyridine], the “affinity for dopamine D2” value in data set [1] is “high affinity”. Moreover, the “affinity for serotonin 5-HT2 receptor” value in data set [2] was “high affinity”.
